Here are results for eight compounds from patent publication US20130005696A1, “BUFADIENOLIDE DERIVATIVES, PREPARING PROCESS THEREOF, COMPOSITION COMPRISING THE SAME AND THE USE THEREOF” (priority 2011, published 2013).

Each structure is given as a SMILES string.

In experiment [1] the test system is LoVo human colon carcinoma cell line. In words: In vitro antitumor activity assay (SRB), LoVo. To be noted: Table 2, read-out: IC50, inhibition of cell proliferation, LoVo. It counts as cell-based. From the text: (§1) HeLa human cervical carcinoma cell line, A-549 human non-small cell lung carcinoma cell line, NCI-H2228 human lung carcinoma cell line, NCI-H460 human lung carcinoma cell line, MDA-MB-231 human breast carcinoma cell line, MCF-7 human breast carcinoma cell line, Bel-7402 human hepatic carcinoma cell line, Hep3B human hepatic carcinoma cell line, QGY-7703 human hepatic carcinoma cell line, MV-4-11 human leukemic cell line, DAUDI human leukemic cell line, Jurkat human leukemic cell line, A498 renal carcinoma cell line, LoVo human colon carcinoma cell line, HCT1116 human colon carcinoma cell line, A431 human skin carcinoma cell line, PANC-1 human pancreatic carcinoma cell line, U87-MG human brain carcinoma cell line, SH-SY5Y human brain carcinoma cell line, RPMI-8226 human bone carcinoma cell line, HT1080 human fibrosarcoma cell line, PC-3 human prostatic carcinoma cell line, AGS human gastric adenocarcinoma cell line, and BGC-823 human gastric adenocarcinoma cell line were purchased from the Cell Bank of the Chinese Academy of Sciences.
(§2) The positive control is bufalin (formulated according to the common method), its purity is 98% or more by HPLC-UV and its structure is identified by NMR. The compounds to be tested and the positive control were diluted with normal saline with a concentration gradient of 10^−4 M, 10^−5 M, 10^−6 M, 10^−7 M and 10^−8 M.
(§3) According to cell growth rate, tumor cells in the log phase of growth were seeded into 96-well culture plates at 100 μL per well, and allowed to attach for 24 hours, followed by addition of a test compound or positive control at 10 μL per well. For each concentration, the test was carried out in triplicate wells. Solvent control wells with addition of normal saline into cell culture and a blank well containing only cell culture medium but without cells for zeroing were also included. The tumor cells were incubated for 72 hours at 37° C. under 5% CO2, and then the culture medium (RPMI-1640) was removed. The cells were fixed with 10% cool TCA by incubating for 1 h at 4° C., washed with distilled water for 5 times, and dried naturally in the air. A solution of SRB (Sigma) (4 mg/mL) in 1% glacial acetic acid was added at 100 μL per well, and the cells were stained for 15 minutes at room temperature, and the supernatant was discarded. The plates were washed for 5 times with 1% acetic acid, and dried in air. Finally, Tris solution was added at 150 μL per well, and the absorbance (A) was measured at a wavelength of 515 nm using a microplate reader. The growth inhibition on tumor cell proliferation was calculated according to the following equation:
(§4) Growth Inhibition (%)=[(Absorbance of negative control−Absorbance of blank)−(Absorbance of sample−Absorbance of blank)]/(Absorbance of negative control−Absorbance of blank)×100%
(§5) Drug concentration: 10 μM, 1 μM, 0.1 μM, 10 nM, 1 nM, 0.1 nM.
(§6) IC50 was fitted by GraphPad Prism 4.

The test system of experiment [2] is HeLa human cervical carcinoma cell line. In words: In vitro antitumor activity assay (SRB), HeLa. It counts as cell-based. To be noted: read-out: IC50, inhibitory activity on cell proliferation of HeLa cell line.
From the text: as §1, §2, §3, §4, §5, §6

Experiment [3] deals with A-549 human non-small cell lung carcinoma cell line. In words: In vitro antitumor activity assay (SRB), A549. To be noted: Homo sapiens; A549, Table 2; read-out: IC50, inhibition of cell proliferation, A549. It counts as cell-based.
From the text: as §1, §2, §3, §4, §5, §6

Experiment [4] has as its system MCF-7 human breast carcinoma cell line. In words: In vitro antitumor activity assay (SRB), MCF-7. To be noted: Homo sapiens, MCF7; MCF-7, Table 2; read-out: IC50, inhibition of cell proliferation, MCF-7. It is filed as cell-based.
From the text: as §1, §2, §3, §4, §5, §6

Experiment [5] relates to PC-3 human prostatic carcinoma cell line. In words: In vitro antitumor activity assay (SRB), PC-3. It counts as cell-based. To be noted: Homo sapiens, Prostatic carcinoma cell; PC-3, Table 2; read-out: IC50, inhibition of cell proliferation, PC-3.
From the text: as §1, §2, §3, §4, §5, §6

For experiment [6], the system named is human-derived leukaemia MV-4-11 xenograft. In words: Therapeutic effect against MV-4-11 xenograft in nude mice. It counts as in vivo, Balb/c nude mice. As to the method: (§7) This experiment is to investigate the in vivo inhibitory effect of II1E-01.HCl on growth of human-derived hepatic carcinoma HepG2 cell, human-derived breast carcinoma MDA-MB-231 cell, human-derived lung carcinoma H460 cell, human-derived colon carcinoma HCT-116 cell, human-derived […] MV-4-11 cell xenografts in nude mice.
(§8) Formulation of solvent control (5% anhydrous ethanol & 5% aqueous glucose solution): 2.5 mL anhydrous ethanol was added into a 50 mL tube, followed by addition of 47.5 mL 5% glucose solution for injection followed by shaking, and stored at room temperature before use.
(§9) Formulation of the preparations of the compounds to be tested: formulations with concentrations of 0.4 mg/mL and 0.6 mg/mL were prepared respectively. An appropriate amount of II1E-01.HCl was weighted and put into a 50 mL tube, followed by addition of corresponding volume of solvent to get the desired concentration and mixed using a vortex mixer. After the solid was dissolved completely, the solution was subpackaged into 4 mL vials and stored at refrigerated condition (2-8° C.) until use.
(§10) Experimental animals: Balb/c nude mice (male, six weeks old).
MV-4-11 cells were in vitro cultured to be proliferated. The cells in the log phase of growth were collected and resuspended in IMDM serum-free medium, and then implanted subcutaneously into the axilla of the right forelimb of nude mice. After 37 days, the tumor size reached about 270 mm^3. The mice bearing the tumor were grouped by randomized block method according to the tumor size into 3 groups, which contain 6 mice in each group and include the group of solvent control, group of positive control (Sunitinib 40 mg/kg), and group of the testing compound II1E-01.HCl (4 mg/kg QOD). In the positive control group, sunitinib was administered intragastrically once daily (QD). In the group of II1E-01.HCl, II1E-01.HCl was administered intravenously at tail once every other day (QOD). The animals were given the drugs for 21 days, during which the growth of tumor and the body weight of the mice were observed.
After continuously administering for 21 days (the 58th day after the implantation), the tumor weight and inhibition rate were calculated, and results are listed in Table 9. […] In the group of the testing compound II1E-01.HCl (4 mg/kg QOD), the tumor also completely disappeared at 14th day after administration, and the inhibition rate was 100.00% (P<0.01) at the end of the experiment.

Experiment [7] concerns human hepatic carcinoma HepG2 xenograft. In words: Therapeutic effect against HepG2 xenograft in nude mice. It counts as in vivo, Balb/c nude mice. To be noted: QW × 14 d. As to the method:
as §7, §8, §9, §10
HepG2 cells were in vitro cultured to be proliferated. The cells in the log phase of growth were collected and resuspended in DMEM serum-free medium, and then implanted subcutaneously into the axilla of the right forelimb of nude mice. After 11 days, the tumor size reached about 250 mm^3. The mice bearing the tumor were grouped according to the tumor size into 6 groups, including the group of solvent control, groups of positive controls (Rapamycin 10 mg/kg and Vinorelbine 8 mg/kg), and groups of low (2 mg/kg), middle (4 mg/kg) and high (6 mg/kg) dosages of the testing compound II1E-01.HCl. Each group was administered intravenously at tail. In the solvent control group, the solvent control solution was administered intravenously once every other day (QOD). In the low, middle and high dosage groups of II1E-01.HCl, II1E-01.HCl was administered intravenously once every other day (QOD). In the positive control groups, Rapamycin 10 mg/kg and Vinorelbine 8 mg/kg were administered once a week (QW). The animals were given the drugs for two weeks. In the two week time period, the growth of tumor and the body weight of the mice were observed.
Two weeks after administering (the 25th day after the implantation), the tumor weight and inhibition rate were calculated, and results are listed in Table 5.

The test system of experiment [8] is human non-small cell lung carcinoma A549 xenograft. In words: In vivo therapeutic effect against A549 xenograft in nude mice. To be noted: A549 xenograft, 5 mg/kg iv QW, after 21 days. As to the method:
This experiment is to evaluate the in vivo therapeutic effects of compounds bufalin, II1D-06.HCl, II1E-01.HCl and II1B-02.HCl against human-derived lung carcinoma A549 cell xenograft in nude mice.
Solvent control: 4% DMSO & 2% Tween-80 & 5% PEG-400 solution in normal saline
Compounds to be tested: bufalin, II1B-02.HCl, II1E-01.HCl, II1D-06.HCl
Formulating method: the compound was dissolved with DMSO into a stock solution, which was then diluted into an injection with a final DMSO concentration of 4%.
Positive control: Rapamycin Formulating method: it was formulated into an injection with a final DMSO concentration of 4%.
After the tumor size reaches about 200 mm^3, the mice bearing the tumor were grouped randomly into 8 groups according to the tumor size, including the groups of solvent control, positive control rapamycin 5 mg/kg, II1E-01.HCl 2 mg/kg, II1E-01.HCl 4 mg/kg, II1E-01.HCl 6 mg/kg, II1B-02.HCl 4 mg/kg, II1D-06.HCl 4 mg/kg, bufalin 1.6 mg/kg, wherein the dosage selection is based on that the maximum tolerable dosage is 1.6 mg/kg for bufalin and 6 mg/kg for II1E-01.HCl. Rapamycin was administered intravenously once a week (QW) and the other groups were administered intraperitoneally once every other day (QOD). The tumor was weighted after 21 days to calculate the inhibition rate. The equation for calculating inhibition rate (IR) is IR=(WC−WT)/WC×100%, wherein, WC represents the tumor weight of the control group, and WT represents the tumor weight of the treating group.

For `CCN(CC)CCNC(=O)O[C@H]1CC[C@@]2(C)[C@H](CC[C@@H]3[C@@H]2CC[C@]2(C)[C@@H](c4ccc(=O)oc4)CC[C@]32O)C1` [II1B-02], the IC50 in experiment [1] stood at 15.7 ± 1.67 nM; in experiment [2] it was 3.73 nM; in experiment [3], 0.39 ± 0.08 nM; in experiment [4], 18.8 ± 2.68 nM; in experiment [5], 20.1 ± 4.08 nM.
For `CN(C)CCN(C)C(=O)O[C@H]1CC[C@@]2(C)[C@H](CC[C@@H]3[C@@H]2CC[C@]2(C)[C@@H](c4ccc(=O)oc4)CC[C@]32O)C1` [II1B-03], the IC50 in experiment [1] was 13.4 ± 3.37 nM; in experiment [2], 1.58 nM; in experiment [3] it was 2.81 ± 0.43 nM; in experiment [4], 10.6 ± 3.04 nM; in experiment [5], 27.3 ± 2.46 nM.
The like results for `CCNCCNC(=O)O[C@H]1CC[C@@]2(C)[C@H](CC[C@@H]3[C@@H]2CC[C@]2(C)[C@@H](c4ccc(=O)oc4)CC[C@]32O)C1` [II1B-05] were, in that order, 14.4 ± 0.76 nM, 1.65 nM, 2.83 ± 0.9 nM, 7.98 ± 1.9 nM and 12.6 ± 0.86 nM.
Take `C[C@]12CC[C@H](OC(=O)N3CCCNCC3)C[C@H]1CC[C@@H]1[C@@H]2CC[C@]2(C)[C@@H](c3ccc(=O)oc3)CC[C@]12O` [II1D-06]: the IC50 in experiment [1] is 0.58 ± 0.29 nM; in experiment [2] it was 0.45 nM; in experiment [3], 0.87 ± 0.02 nM; in experiment [4] it was 2.13 ± 0.29 nM; in experiment [5], 1.25 ± 0.46 nM.
For `C[C@]12CC[C@H](OC(=O)NCC3CCCCN3)C[C@H]1CC[C@@H]1[C@@H]2CC[C@]2(C)[C@@H](c3ccc(=O)oc3)CC[C@]12O` (some centres unmarked) [II1E-03] the same measures were 23.4 ± 3.68 nM, 0.8 nM, 0.58 ± 0.17 nM, 31 ± 3.07 nM and 14.8 ± 1.12 nM.
Consider `CCN(CC)CCNC(=O)c1c(C)[nH]c(/C=C2\C(=O)Nc3ccc(F)cc32)c1C` [Sunitinib, reference compound], for which, in experiment [6] (40 mg/kg ig QD), the “day after administration at which the tumor completely disappeared” value turned out to be 10 days. In experiment [6] (40 mg/kg ig, QD × 21 d), the “Tumor Weight(g) Mean ± SE” value is on record as 0.0000 ± 0.0000 g. Besides, the “Inhibition Rate (%)” value in experiment [6] (40 mg/kg ig, QD × 21 d, 40 mg/kg) worked out at 100.00%.
As to `CCC1=C[C@@H]2CN(C1)Cc1c([nH]c3ccccc13)[C@@](C(=O)OC)(c1cc3c(cc1OC)N(C)[C@H]1[C@@](O)(C(=O)OC)[C@H](OC(C)=O)[C@]4(CC)C=CCN5CC[C@]31[C@@H]54)C2` [Vinorelbine, reference compound], the “Tumor Weight(g) Mean ± SE” value in experiment [7] (8 mg/kg iv) stood at 0.4719 ± 0.0660 g. Besides, the “Inhibition Rate (%)” value in experiment [7] (8 mg/kg iv, 8 mg/kg) worked out at 38.36%.
With `CO[C@H]1C[C@@H]2CC[C@@H](C)[C@@](O)(O2)C(=O)C(=O)N2CCCC[C@H]2C(=O)O[C@H]([C@H](C)C[C@@H]2CC[C@@H](O)[C@H](OC)C2)CC(=O)[C@H](C)/C=C(\C)[C@@H](O)[C@@H](OC)C(=O)[C@H](C)C[C@H](C)/C=C/C=C/C=C/1C` [rapamycin, Rapamycin, reference compound], the results for the “Tumor Weight(g) Mean ± SE” value in experiment [7] (10 mg/kg iv) and in experiment [8] were 0.4806 ± 0.0269 g and 0.6925 ± 0.0652 g, respectively. Also, the “Inhibition Rate (%)” value turned out to be 37.23% in experiment [7] (10 mg/kg iv, 10 mg/kg); 37.23% in experiment [7] (10 mg/kg iv, listed as Rapamycin, 10 mg/kg); 58.86% in experiment [8].
